Source: publication PMC11903733 (Frontiers in Pharmacology, 2025)

Experiments:
Assay in all cases: SelectScreen kinase profiling
Type in all cases: biochemical
CDK12 = CDK12 (Homo sapiens, UniProt Q9NYV4)
Description: (§1) The kinase selectivity analysis of LTM-1 was performed utilizing the SelectScreen Kinase Profiling Service offered by Thermo Fisher Scientific. In a dose-response assay featuring a ten-point dilution series from 0.25 μM to 128 μM, the inhibitory effects of LTM-1 on substrate phosphorylation reactions catalyzed by a panel of kinases were assessed. Consequently, the half-maximal inhibitory concentrations (IC50 values) for each kinase were determined.

CSF1R = CSF1R (Homo sapiens, UniProt P07333)
Description: as §1

KDR = KDR (Homo sapiens, UniProt P35968)
Description: as §1

NTRK1 = NTRK1 (Homo sapiens, UniProt P04629)
Description: as §1

PLK1 = PLK1 (Homo sapiens, UniProt P53350)
Description: as §1

KIT = KIT (Homo sapiens, UniProt P10721)
Description: as §1

EPHB2 = EPHB2 (Homo sapiens, UniProt P29323)
Description: as §1

EPHA1 = EPHA1 (Homo sapiens, UniProt P21709)
Description: as §1

LYN = LYN (Homo sapiens, UniProt P07948)
Description: as §1

JAK3 = JAK3 (Homo sapiens, UniProt P52333)
Description: as §1

NTRK2 = NTRK2 (Homo sapiens, UniProt Q16620)
Description: as §1

CDK7 = CDK7 (Homo sapiens, UniProt P50613)
Description: as §1

PTK2 = PTK2 (Homo sapiens, UniProt Q05397)
Description: as §1

FRK = FRK (Homo sapiens, UniProt P42685)
Description: as §1

AXL = AXL (Homo sapiens, UniProt P30530)
Description: as §1

ROS1 = ROS1 (Homo sapiens, UniProt P08922)
Description: as §1

CDK3 = CDK3 (Homo sapiens, UniProt Q00526)
Description: as §1

CDK6 = CDK6 (Homo sapiens, UniProt Q00534)
Description: as §1

MUSK = MUSK (Homo sapiens, UniProt O15146)
Description: as §1

MET = MET (Homo sapiens, UniProt P08581)
Description: as §1

PLK2 = PLK2 (Homo sapiens, UniProt Q9NYY3)
Description: as §1

FYN = FYN (Homo sapiens, UniProt P06241)
Description: as §1

CDK8 = CDK8 (Homo sapiens, UniProt P49336)
Description: as §1

CDK5 = CDK5 (Homo sapiens, UniProt Q00535)
Description: as §1

BMX = BMX (Homo sapiens, UniProt P51813)
Description: as §1

PDGFRB = PDGFRB (Homo sapiens, UniProt P09619)
Description: as §1

CDK4 = CDK4 (Homo sapiens, UniProt P11802)
Description: as §1

ERBB4 = ERBB4 (Homo sapiens, UniProt Q15303)
Description: as §1

BTK = BTK (Homo sapiens, UniProt Q06187)
Description: as §1

LTK = LTK (Homo sapiens, UniProt P29376)
Description: as §1

ERBB2 = ERBB2 (Homo sapiens, UniProt P04626)
Description: as §1

ZAK = ZAK (Homo sapiens, UniProt Q9NYL2)
Description: as §1

NTRK3 = NTRK3 (Homo sapiens, UniProt Q16288)
Description: as §1

MERTK = MERTK (Homo sapiens, UniProt Q12866)
Description: as §1

PDGFRA = PDGFRA (Homo sapiens, UniProt P16234)
Description: as §1

FGFR2 = FGFR2 (Homo sapiens, UniProt P21802)
Description: as §1

ITK = ITK (Homo sapiens, UniProt Q08881)
Description: as §1

ABL2 = ABL2 (Homo sapiens, UniProt P42684)
Description: as §1

JAK2 = JAK2 (Homo sapiens, UniProt O60674)
Description: as §1

CDK2 = CDK2 (Homo sapiens, UniProt P24941)
Description: as §1

CDK13 = CDK13 (Homo sapiens, UniProt Q14004)
Description: as §1

CDK19 = CDK19 (Homo sapiens, UniProt Q9BWU1)
Description: as §1

FES = FES (Homo sapiens, UniProt P07332)
Description: as §1

Measured: IC50

CDK13, sequence (Q14004 whole entry): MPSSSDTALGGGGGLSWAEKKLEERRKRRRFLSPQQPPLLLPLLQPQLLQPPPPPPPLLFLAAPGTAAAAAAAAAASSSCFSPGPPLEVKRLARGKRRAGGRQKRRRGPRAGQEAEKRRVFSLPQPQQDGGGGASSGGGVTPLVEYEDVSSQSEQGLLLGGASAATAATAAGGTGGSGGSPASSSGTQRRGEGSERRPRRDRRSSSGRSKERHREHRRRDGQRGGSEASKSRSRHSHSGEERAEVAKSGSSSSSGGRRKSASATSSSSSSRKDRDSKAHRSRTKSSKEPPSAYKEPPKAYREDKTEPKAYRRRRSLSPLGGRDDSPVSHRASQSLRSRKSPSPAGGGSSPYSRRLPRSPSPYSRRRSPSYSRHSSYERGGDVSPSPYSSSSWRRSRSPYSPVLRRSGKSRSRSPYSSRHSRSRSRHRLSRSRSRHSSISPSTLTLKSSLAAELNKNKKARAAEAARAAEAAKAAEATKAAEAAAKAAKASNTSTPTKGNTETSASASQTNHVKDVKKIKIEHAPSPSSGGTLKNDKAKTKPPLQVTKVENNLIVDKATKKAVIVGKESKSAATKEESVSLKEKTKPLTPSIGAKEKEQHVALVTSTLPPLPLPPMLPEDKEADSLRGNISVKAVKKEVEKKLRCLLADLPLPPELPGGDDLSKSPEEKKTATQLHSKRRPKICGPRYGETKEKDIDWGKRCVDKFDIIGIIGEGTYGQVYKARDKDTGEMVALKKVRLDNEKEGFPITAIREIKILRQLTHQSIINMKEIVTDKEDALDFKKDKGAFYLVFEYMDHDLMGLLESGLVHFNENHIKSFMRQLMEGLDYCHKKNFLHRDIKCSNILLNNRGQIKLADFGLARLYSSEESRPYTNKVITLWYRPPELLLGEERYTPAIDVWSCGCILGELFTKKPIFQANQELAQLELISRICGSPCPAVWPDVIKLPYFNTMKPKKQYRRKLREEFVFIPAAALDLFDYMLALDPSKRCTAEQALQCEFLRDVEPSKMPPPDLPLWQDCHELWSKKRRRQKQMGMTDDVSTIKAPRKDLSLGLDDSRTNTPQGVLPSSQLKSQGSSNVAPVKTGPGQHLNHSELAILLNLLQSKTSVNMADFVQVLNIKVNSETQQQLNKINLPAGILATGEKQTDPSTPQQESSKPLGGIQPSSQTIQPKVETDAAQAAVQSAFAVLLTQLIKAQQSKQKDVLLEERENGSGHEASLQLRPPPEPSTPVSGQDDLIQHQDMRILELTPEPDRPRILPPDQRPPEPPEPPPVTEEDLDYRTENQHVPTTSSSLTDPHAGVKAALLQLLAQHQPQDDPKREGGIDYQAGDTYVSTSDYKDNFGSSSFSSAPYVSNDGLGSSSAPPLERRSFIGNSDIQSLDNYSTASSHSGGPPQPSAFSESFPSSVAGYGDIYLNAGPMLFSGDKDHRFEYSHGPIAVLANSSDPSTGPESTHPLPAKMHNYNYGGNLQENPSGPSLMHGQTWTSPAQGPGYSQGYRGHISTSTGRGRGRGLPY
CDK13, sequence (O75909 whole entry partner): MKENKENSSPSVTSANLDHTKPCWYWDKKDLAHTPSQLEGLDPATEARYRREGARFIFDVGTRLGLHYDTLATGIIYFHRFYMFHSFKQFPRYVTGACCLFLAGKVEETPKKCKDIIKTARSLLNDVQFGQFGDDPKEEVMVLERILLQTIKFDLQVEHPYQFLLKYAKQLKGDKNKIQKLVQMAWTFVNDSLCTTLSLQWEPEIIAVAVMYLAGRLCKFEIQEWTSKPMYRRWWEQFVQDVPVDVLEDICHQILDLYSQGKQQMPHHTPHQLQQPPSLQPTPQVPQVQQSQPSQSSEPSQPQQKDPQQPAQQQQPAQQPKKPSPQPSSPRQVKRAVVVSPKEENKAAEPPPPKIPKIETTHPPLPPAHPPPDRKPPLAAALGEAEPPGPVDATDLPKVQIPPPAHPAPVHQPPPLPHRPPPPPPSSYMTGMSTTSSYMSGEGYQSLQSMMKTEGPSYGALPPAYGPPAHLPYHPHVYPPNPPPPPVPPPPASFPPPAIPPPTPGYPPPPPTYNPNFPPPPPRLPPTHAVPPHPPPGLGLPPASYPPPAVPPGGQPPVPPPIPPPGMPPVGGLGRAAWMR
MUSK, sequence (O15146 24-869): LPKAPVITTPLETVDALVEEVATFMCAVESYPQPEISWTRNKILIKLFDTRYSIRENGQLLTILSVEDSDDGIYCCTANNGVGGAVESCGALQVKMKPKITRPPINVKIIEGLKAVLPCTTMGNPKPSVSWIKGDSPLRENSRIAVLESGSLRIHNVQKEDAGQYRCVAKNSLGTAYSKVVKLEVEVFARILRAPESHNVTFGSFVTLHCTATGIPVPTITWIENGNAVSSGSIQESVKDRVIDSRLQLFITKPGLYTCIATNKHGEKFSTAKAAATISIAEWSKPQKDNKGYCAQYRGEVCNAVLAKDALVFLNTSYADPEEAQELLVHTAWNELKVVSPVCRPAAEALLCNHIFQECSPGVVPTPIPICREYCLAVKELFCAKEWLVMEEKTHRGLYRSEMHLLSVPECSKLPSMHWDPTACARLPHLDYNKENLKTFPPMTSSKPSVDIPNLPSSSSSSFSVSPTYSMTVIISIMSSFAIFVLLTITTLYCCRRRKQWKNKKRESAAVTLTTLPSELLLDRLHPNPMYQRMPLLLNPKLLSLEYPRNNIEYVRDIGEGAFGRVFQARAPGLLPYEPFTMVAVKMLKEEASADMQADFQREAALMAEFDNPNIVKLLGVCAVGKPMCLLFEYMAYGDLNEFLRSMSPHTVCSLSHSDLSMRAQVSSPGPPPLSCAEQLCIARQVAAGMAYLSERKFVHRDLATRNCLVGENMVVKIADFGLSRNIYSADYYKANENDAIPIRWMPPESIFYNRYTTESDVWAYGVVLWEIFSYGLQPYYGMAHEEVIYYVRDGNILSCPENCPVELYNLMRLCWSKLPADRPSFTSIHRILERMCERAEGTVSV
PDGFRA, sequence (P16234 24-1089): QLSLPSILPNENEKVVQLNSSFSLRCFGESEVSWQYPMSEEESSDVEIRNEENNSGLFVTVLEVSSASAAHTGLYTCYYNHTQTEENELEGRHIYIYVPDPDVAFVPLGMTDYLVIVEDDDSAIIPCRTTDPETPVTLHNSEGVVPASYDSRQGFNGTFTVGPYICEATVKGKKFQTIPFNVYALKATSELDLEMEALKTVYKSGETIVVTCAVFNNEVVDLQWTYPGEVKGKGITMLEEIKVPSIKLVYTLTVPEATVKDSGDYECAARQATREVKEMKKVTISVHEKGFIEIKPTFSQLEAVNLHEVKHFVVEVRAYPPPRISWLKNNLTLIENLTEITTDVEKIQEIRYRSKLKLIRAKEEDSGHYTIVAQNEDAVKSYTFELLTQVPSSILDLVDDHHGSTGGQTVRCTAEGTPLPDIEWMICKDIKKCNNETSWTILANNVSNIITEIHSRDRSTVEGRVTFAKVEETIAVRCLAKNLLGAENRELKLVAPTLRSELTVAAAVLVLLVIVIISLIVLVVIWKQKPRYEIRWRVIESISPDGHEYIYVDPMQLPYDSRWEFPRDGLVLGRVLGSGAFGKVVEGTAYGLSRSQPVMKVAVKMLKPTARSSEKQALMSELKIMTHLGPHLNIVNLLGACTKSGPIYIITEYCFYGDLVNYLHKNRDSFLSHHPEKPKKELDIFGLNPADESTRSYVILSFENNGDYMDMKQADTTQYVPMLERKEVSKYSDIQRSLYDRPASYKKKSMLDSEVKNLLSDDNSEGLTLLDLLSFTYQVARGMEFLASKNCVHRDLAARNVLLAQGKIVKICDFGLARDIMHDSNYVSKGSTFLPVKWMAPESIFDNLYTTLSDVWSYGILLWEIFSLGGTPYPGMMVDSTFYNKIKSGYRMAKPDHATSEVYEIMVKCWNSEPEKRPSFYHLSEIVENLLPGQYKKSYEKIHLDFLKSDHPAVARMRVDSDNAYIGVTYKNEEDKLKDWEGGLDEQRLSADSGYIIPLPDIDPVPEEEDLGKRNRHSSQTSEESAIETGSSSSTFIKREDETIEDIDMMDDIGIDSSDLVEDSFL
MERTK, sequence (Q12866 21-999): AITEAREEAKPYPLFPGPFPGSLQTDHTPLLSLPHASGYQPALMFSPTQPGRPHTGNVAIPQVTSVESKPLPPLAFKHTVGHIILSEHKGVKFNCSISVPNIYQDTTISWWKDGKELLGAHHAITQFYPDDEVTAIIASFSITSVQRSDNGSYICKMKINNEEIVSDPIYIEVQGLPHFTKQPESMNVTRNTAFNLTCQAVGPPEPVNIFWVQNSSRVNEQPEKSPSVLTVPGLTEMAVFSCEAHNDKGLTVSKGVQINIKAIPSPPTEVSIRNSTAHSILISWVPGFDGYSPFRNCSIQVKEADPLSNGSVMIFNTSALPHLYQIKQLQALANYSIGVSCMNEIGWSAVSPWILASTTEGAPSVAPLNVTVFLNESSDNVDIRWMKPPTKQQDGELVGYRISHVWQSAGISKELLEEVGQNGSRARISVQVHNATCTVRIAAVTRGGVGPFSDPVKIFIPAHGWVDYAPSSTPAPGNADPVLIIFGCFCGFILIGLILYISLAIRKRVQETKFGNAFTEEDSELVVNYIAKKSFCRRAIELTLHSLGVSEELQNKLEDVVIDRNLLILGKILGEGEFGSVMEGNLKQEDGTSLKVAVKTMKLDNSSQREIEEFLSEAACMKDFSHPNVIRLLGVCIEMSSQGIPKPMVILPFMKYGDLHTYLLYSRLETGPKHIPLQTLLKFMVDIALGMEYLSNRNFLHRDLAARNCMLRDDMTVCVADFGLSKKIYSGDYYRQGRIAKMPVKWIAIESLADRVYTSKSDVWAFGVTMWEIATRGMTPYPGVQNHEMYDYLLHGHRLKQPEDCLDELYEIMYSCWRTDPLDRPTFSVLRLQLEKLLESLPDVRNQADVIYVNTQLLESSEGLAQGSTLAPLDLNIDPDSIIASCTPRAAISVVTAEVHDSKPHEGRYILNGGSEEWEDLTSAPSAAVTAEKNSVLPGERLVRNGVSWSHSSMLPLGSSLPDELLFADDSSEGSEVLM

O=S(=O)(c1ccc(C(O)CO)c(C(F)(F)F)c1)N1CCc2cc(C3CC3NCC3CCNCC3)ccc21 (stereo not shown) [LTM-1]
> 10 µM: all assays above
